Laboratory results as given in patent US12410157B2, “Compound useful as toll-like receptor 7 activation inhibitor” (TOYAMA PREFECTURAL UNIVERSITY, priority 2020, dated 2025).
pIC50: −log10 of the molar value.

Experiments:
[1] = system: Cytochrome P450 (CYP), mouse liver microsomes; assay: Metabolic stability (CYP) using mouse liver microsomes, HPLC; format: in vitro ADME; conditions: for Area (%) of peak: LC-UV (220 nm)
Method: For CB-7, B2-24, and B2-5A, 10 mg/mL DMSO solution was used. Each chemical compound was diluted with acetonitrile to 0.1 mg/mL, which was used as the analytical standard. Mouse liver microsomal fractions were rapidly thawed in a warm bath at 37° C. and kept on ice. Reaction buffer containing CYP cofactor was prepared on ice and mixed with the microsomal fractions. The reaction solution was preincubated at 37° C. for 5 minutes, and then the test substance solution was added and mixed well by pipetting. The volume of the reaction solution was 200 μL and the final concentration of the test substance was 0.1 mg/mL. The reaction solution was incubated at 37° C. for 30 minutes or 2 hours, and the reaction was stopped by adding 3 times the volume of acetonitrile and vortexing. After the reaction was stopped, the samples were centrifuged, and each supernatant was separated and dried in an evaporator. 50 μL of 50% acetonitrile solution was added to each solidified sample, and each sample was re-dissolved by vortexing for 5 minutes. Each redissolved solution was centrifuged, and each supernatant was subjected to HPLC analysis using a HITACHI Lachrom ELITE (HITACHI) as a HPLC system and COSMOSIL 5C18-MS-II, 4.6 mmI.D.×150 mm (nacalai tesque Co.) as a column.
Metabolic stability analysis of CB-7 and B2-24-4-5A·HCOOH was performed by the method of Example 5.

mouse TLR7 = molecular target: T1, mouse TLR7 (Mus musculus, UniProt P58681); assay: Inhibition of TLR7 activation in mouse TLR7-expressing NF-κB-GFP reporter Ba/F3 cells; format: cell-based; conditions: Example 5, Table 5; method of Example 2; read-out: IC50
T1 construct: expressed in transfected cells; host or cells: Ba/F3 cells (provided by Prof. Kensuke Miyake, University of Tokyo)
T1 sequence (P58681 27-1050): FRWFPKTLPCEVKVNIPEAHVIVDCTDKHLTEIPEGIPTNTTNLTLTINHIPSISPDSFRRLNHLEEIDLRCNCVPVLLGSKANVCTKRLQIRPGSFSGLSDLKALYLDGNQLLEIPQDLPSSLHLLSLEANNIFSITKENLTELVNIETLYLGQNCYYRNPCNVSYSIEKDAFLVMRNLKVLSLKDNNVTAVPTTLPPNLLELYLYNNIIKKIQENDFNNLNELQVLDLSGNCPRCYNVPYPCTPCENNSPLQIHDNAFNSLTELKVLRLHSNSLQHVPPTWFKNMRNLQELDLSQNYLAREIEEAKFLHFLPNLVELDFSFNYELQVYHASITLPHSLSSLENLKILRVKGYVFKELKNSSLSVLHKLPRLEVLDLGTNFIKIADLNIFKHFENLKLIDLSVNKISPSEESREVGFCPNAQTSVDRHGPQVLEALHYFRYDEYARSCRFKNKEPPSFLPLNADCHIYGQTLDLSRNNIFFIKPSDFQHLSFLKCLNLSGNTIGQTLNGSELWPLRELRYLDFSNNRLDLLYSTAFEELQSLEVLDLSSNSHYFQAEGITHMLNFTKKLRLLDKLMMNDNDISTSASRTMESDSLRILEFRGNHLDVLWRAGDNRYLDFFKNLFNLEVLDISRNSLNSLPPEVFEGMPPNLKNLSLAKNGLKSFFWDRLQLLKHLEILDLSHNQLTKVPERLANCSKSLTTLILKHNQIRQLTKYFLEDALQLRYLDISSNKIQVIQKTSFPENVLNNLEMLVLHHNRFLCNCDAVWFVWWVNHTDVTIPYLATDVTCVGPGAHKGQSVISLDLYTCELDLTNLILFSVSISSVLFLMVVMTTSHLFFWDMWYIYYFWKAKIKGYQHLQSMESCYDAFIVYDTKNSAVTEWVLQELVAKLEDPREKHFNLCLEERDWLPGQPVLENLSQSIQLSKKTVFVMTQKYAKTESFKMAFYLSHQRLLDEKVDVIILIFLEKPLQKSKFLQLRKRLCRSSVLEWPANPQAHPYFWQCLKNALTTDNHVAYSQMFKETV
Excerpt: Mouse TLR7-expressing reporter cells (Ba/F3 cells) were used to evaluate inhibition of TLR7 activation in each derivative and CB-7. These cells were provided by Professor Kensuke Miyake (Department of Infection Genetics, Institute of Medical Science, University of Tokyo). These cells have been transfected with a reporter gene that connects GFP gene downstream of the promoter region of NF-κB. Therefore, the expression of GFP is enhanced by the addition of a ligand for TLR7 expressed by the cells. The fluorescence intensity of GFP was attenuated by the addition of each derivative, and the inhibition of TLR7 activation by each derivative was evaluated as an indicator.
Loxoribine (Alexis Biochemicals) was used as the ligand for mouse TLR7. Gardiquimod (Invivogen) was used as the ligand for human TLR7.
Ba/F3 cells cultured in RPMI 1640 medium containing 10% (v/v) fetal calf serum (FCS), 50 U/mL penicillin, 50 μg/mL streptomycin, 2 mM L-glutamine, […] 2-mercaptoethanol, 1 ng/mL interleukin-3 were aliquoted into 96-well plates so that the number of cells per well was 1.0×10^5 cells/100 μL. 50 μL of each derivative or CB-7, prepared to final concentrations of 1, 5, 10, 25, 50, and 100 µM, was added to each well. 96-well plates were incubated at 37° C. for 30 minutes in the presence of 5% CO2. Next, 250 μg/mL Roxoribin was added to each well and incubated for 18 hours. At the end of incubation, cells were washed with PBS (FACS buffer) containing 2.5% (v/v) FCS and suspended in 200 μL of FACS buffer containing 25 μg/mL […] for each cell. GFP fluorescence intensities of the cells were analyzed by flow cytometry. Flow cytometry measurement was performed on a FACSCanto™ II (Becton Dickinson) and data were analyzed with FlowJo software (Tree Star). The MFI (%) upon stimulation with roxoribin in the presence of […] derivatives or CB-7 was calculated using the MFI upon stimulation with roxoribin alone as 100%, and then IC50 (chemical compound concentration that inhibits activity by 50%) was calculated by logistic regression analysis.
The evaluation of the TLR7 activation inhibition by B2-24-4-5A·HCOOH was performed by the method described in Example 2. CB-7 and B2-24-4·HCl were used as controls.

C=C(C)[C@@H]1CC[C@]2(COC(=O)C2)C[C@H]1c1ccc(CN2CCNCC2)cc1 [B2-24-4-5A·HCOOH]
Number of peaks detected by HPLC ([1]; Example 9): 6
Area (%) of peak ([1]; Example 9, 0 h): 100%
Area (%) of peak ([1]; Example 9, incubation 0.5 h): 95.4%
Area (%) of peak ([1]; Example 9, incubation 2.0 h): 88.4%
Drug metabolism mainly by CYPs compared to CB-7 ([1]; words): significantly improved drug metabolism
pIC50 (mouse TLR7): 6.78
